Test systems include SNB-19 CNS; HOP-92 NSCLC; SF-539 CNS; SW-620 colon; SN12C renal; OVCAR-3 ovarian; UACC-62 melanoma; PC-3 prostate; COLO 205 colon; OVCAR-5 ovarian.
What all share (test): DTP human tumour cell line panel, 48 h

The structures appear in SMILES notation. Several values for one entry are separate records, joined by “and”; a condition that tells them apart may be missing. Identical values can stand only once.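 1) Cells in 96-well plates. 2) Compound, 48 h, 5 concentrations. 3) Linear interpolation between surrounding doses. 4) Unreached endpoint = highest concentration. Abbreviation: GI50, concentration required for 50% inhibition of growth. TGI: concentration producing complete growth inhibition.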 A value given as a limit tells only on which side of the number the result lay.

Usually GI50 stands for the concentration giving 50% growth inhibition. The term TGI denotes the concentration giving total growth inhibition. On to `CCCCCCc1nc2nc(Cl)c(Cl)nc2[nH]1`, for which the GI50 is 6.2 µM in the assay with SNB-19 CNS; 1.99 µM in the assay with HOP-92 NSCLC; > 100 µM with SF-539 CNS; > 100 µM in the assay with SW-620 colon; 4.26 µM in the assay with SN12C renal; 4.01 µM in the assay with OVCAR-3 ovarian. Moreover, the GI50 in the assay on UACC-62 melanoma is 3.2 µM; in the assay on PC-3 prostate, 4.68 µM; in the assay with COLO 205 colon, 8.04 µM; in the assay with OVCAR-5 ovarian, > 100 µM. The TGI was > 100 µM in the assay with SNB-19 CNS; 7.4 µM in the assay with HOP-92 NSCLC; > 100 µM with SF-539 CNS; > 100 µM in the assay on SW-620 colon; > 100 µM in the assay on SN12C renal; > 100 µM with OVCAR-3 ovarian. The concentration for total growth inhibition (TGI) in the assay with UACC-62 melanoma, in the assay with PC-3 prostate, with COLO 205 colon and with OVCAR-5 ovarian was > 100 µM each time.
For the compound `CCN(CC)CCNc1cc(-c2cccc(OC(F)(F)F)c2)nc2ccc(N3CCCC3)cc12`, the GI50 in the assay with SNB-19 CNS was 1.75 µM and 1.84 µM and 1.98 µM; with HOP-92 NSCLC, 1.17 µM and 1.34 µM and 1.51 µM; in the assay with SF-539 CNS, 1.68 µM and 1.74 µM and 1.79 µM; in the assay on SW-620 colon, 1.67 µM and 1.86 µM and 2.01 µM; in the assay on SN12C renal it was 1.69 µM and 1.53 µM and 1.89 µM; in the assay on OVCAR-3 ovarian, 1.82 µM and 1.83 µM and 1.9 µM. In addition, the GI50 was 1.81 µM and 1.82 µM and 1.79 µM with UACC-62 melanoma; 1.37 µM and 1.57 µM and 1.81 µM in the assay on PC-3 prostate; 1.45 µM and 1.69 µM with COLO 205 colon; 1.94 µM and 2.24 µM in the assay with OVCAR-5 ovarian. The TGI in the assay with SNB-19 CNS was 3.4 µM and 3.31 µM and 3.8 µM; in the assay with HOP-92 NSCLC, 2.84 µM and 3.09 µM and 4.68 µM; in the assay with SF-539 CNS it was 3.2 µM and 3.32 µM and 3.36 µM; in the assay on SW-620 colon it was 3.25 µM and 3.79 µM and 4.36 µM; with SN12C renal, 3.37 µM and 2.98 µM and 3.86 µM; with OVCAR-3 ovarian it was 4.11 µM and 3.77 µM and 4.41 µM. Besides, the TGI in the assay on UACC-62 melanoma was 3.47 µM and 3.28 µM and 3.51 µM; with PC-3 prostate it was 2.76 µM and 3.1 µM and 3.81 µM; in the assay with COLO 205 colon, 2.91 µM and 3.24 µM; with OVCAR-5 ovarian, 3.93 µM and 3.83 µM and 6.12 µM.
`N#CS.N=C=S.N=C=S.[Cu+2].[NH2-].[NH2-].[NH2-].[NH2-].c1ccc2ncccc2c1`: the GI50 with SNB-19 CNS was 18.1 µM; in the assay with HOP-92 NSCLC it was > 100 µM; with SF-539 CNS, > 100 µM; in the assay on SW-620 colon, > 100 µM; in the assay with SN12C renal, > 100 µM; in the assay with OVCAR-3 ovarian, 21.3 µM. Further, the GI50 was 19.4 µM in the assay on UACC-62 melanoma, > 100 µM in the assay with PC-3 prostate, > 100 µM with COLO 205 colon and 21.6 µM with OVCAR-5 ovarian. Moreover, the TGI in the assay on SNB-19 CNS was 32.9 µM; in the assay with HOP-92 NSCLC it was > 100 µM; in the assay with SF-539 CNS it was > 100 µM; with SW-620 colon, > 100 µM; with SN12C renal, > 100 µM; in the assay on OVCAR-3 ovarian, 41.8 µM. Moreover, the TGI is 37 µM in the assay with UACC-62 melanoma, > 100 µM in the assay on PC-3 prostate, > 100 µM in the assay on COLO 205 colon and 41 µM in the assay with OVCAR-5 ovarian.
`COc1ccc2c(c1OC)OCC(CN(C)C)C2=O` (configuration not stated): the TGI with SNB-19 CNS is > 100 µM; in the assay with HOP-92 NSCLC it was 11.3 µM; with SF-539 CNS, 36.7 µM; with SW-620 colon, 26.4 µM; in the assay with SN12C renal it was 34 µM; in the assay with OVCAR-3 ovarian it was 48.5 µM. Moreover, the TGI in the assay with UACC-62 melanoma was 32.1 µM; with PC-3 prostate, 34.6 µM; in the assay with COLO 205 colon, 21.6 µM; with OVCAR-5 ovarian, 35.7 µM.
As to `NC1=NCCN1CC(=O)O`, the GI50 in the assay on SNB-19 CNS, with HOP-92 NSCLC, in the assay on SW-620 colon, in the assay with SN12C renal, with OVCAR-3 ovarian and in the assay with UACC-62 melanoma was > 10000 µM in each case. The GI50 with PC-3 prostate, with COLO 205 colon and with OVCAR-5 ovarian was > 10000 µM each time. The TGI is > 10000 µM in the assay with SNB-19 CNS; > 10000 µM in the assay on HOP-92 NSCLC; > 1000 µM in the assay on SF-539 CNS; > 10000 µM in the assay with SW-620 colon; > 10000 µM in the assay on SN12C renal; > 10000 µM in the assay with OVCAR-3 ovarian. Moreover, the TGI in the assay with UACC-62 melanoma, in the assay with PC-3 prostate, in the assay with COLO 205 colon and in the assay with OVCAR-5 ovarian was > 10000 µM each time.
As for `CCCCCCCCCCCCCCCCOP(=O)(O)OP(=O)(O)OCC1OC(n2ccc(N)nc2=O)C(O)C1O` (configuration not stated), the GI50 in the assay with SNB-19 CNS was > 100 µM and 23.8 µM; in the assay with SN12C renal, > 100 µM and 19.4 µM; in the assay on UACC-62 melanoma it was > 100 µM and 21.3 µM. In addition, the TGI in the assay on SNB-19 CNS, in the assay with HOP-92 NSCLC, in the assay on SF-539 CNS, in the assay with SW-620 colon, in the assay on SN12C renal and in the assay with OVCAR-3 ovarian was > 100 µM each time. Also, the TGI in the assay on UACC-62 melanoma, in the assay with PC-3 prostate, in the assay with COLO 205 colon and with OVCAR-5 ovarian was > 100 µM throughout.
In the case of `C=CN(C)S(C)(=O)=O`, the GI50 in the assay with SNB-19 CNS, in the assay on HOP-92 NSCLC, in the assay with SF-539 CNS, with SW-620 colon, in the assay on SN12C renal and in the assay with OVCAR-3 ovarian was > 100 µM each time. The GI50 in the assay with UACC-62 melanoma, in the assay with PC-3 prostate, in the assay on COLO 205 colon and in the assay on OVCAR-5 ovarian was > 100 µM throughout. Also, the TGI in the assay on SNB-19 CNS, in the assay on HOP-92 NSCLC, with SF-539 CNS, in the assay with SW-620 colon, in the assay with SN12C renal and in the assay with OVCAR-3 ovarian was > 100 µM throughout. For the same compound, the TGI in the assay with UACC-62 melanoma, in the assay on PC-3 prostate, in the assay with COLO 205 colon and with OVCAR-5 ovarian was > 100 µM each time.
Regarding `COc1cc(-c2ncn(/C=C\C(=O)OC(C)C)n2)cc(C(F)(F)F)c1`, the GI50 in the assay on SNB-19 CNS was 0.142 µM and 0.253 µM; in the assay on HOP-92 NSCLC, 0.303 µM and 0.103 µM; with SF-539 CNS it was 0.0146 µM and 0.018 µM; in the assay with SW-620 colon, 0.0368 µM and 0.0441 µM; in the assay with SN12C renal, 0.28 µM and 0.314 µM; with OVCAR-3 ovarian, 0.0406 µM and 0.0353 µM. Moreover, the GI50 in the assay on UACC-62 melanoma was 0.112 µM and 0.114 µM; with PC-3 prostate, 0.106 µM and 0.0584 µM; with COLO 205 colon, 0.0432 µM and 0.0437 µM; with OVCAR-5 ovarian, 0.196 µM and 0.154 µM. The TGI with SNB-19 CNS was 13.5 µM and 14.9 µM; in the assay on HOP-92 NSCLC, 4.96 µM and 5.68 µM; in the assay on SF-539 CNS it was 0.225 µM and 0.187 µM; with SW-620 colon, 6.58 µM and 5.38 µM; in the assay on SN12C renal it was 11.7 µM and 11 µM; with OVCAR-3 ovarian it was 1.29 µM and 0.857 µM. The TGI in the assay on UACC-62 melanoma is 2 µM and 3.42 µM; with PC-3 prostate it was 14.9 µM and 12.8 µM; with COLO 205 colon, 1.28 µM and 1.46 µM; in the assay on OVCAR-5 ovarian, 17.3 µM and 14.8 µM.

The record behind these values is PubChem BioAssay (NCI).
